Where “and” joins values, the source holds several entries; their conditions need not be identical. Identical values can stand only once. Inconclusive results and toxic doses are left out.
System: CD2F1 mice, L1210 leukemia ip, survival T/C
Test: NCI In Vivo Anticancer Drug Screen. Data for tumor model L1210 Leukemia (intraperitoneal) in CD2F1 (CDF1) mice
Conditions: higher = longer survival
Method in brief: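 Vehicle-treated tumor-bearing mice served as controls (C) for compound-treated mice (T). Reported figure is T divided by C.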

NC(C/[N+]([O-])=N/O)C(=O)O (configuration not stated)
T/C (endpoint: mean survival time, dose: 5.0 mg/kg/injection, schedule: Q01DX009 (ip), vehicle: alkali diluted with saline): 100 % of control | T/C (endpoint: mean survival time, dose: 7.5 mg/kg/injection, schedule: Q01DX005 (ip), vehicle: alkali diluted with saline): 98 % of control | T/C (endpoint: mean survival time, dose: 8.0 mg/kg/injection, schedule: Q03HX008 (ip), vehicle: saline): 111 % of control | T/C (endpoint: mean survival time, dose: 8.0 mg/kg/injection, schedule: Q03HX016 (ip), vehicle: saline): 105 % of control | T/C (endpoint: mean survival time, dose: 8.0 mg/kg/injection, schedule: Q03HX024 (ip), vehicle: saline): 109 % of control | T/C (endpoint: mean survival time, dose: 8.78 mg/kg/injection, schedule: Q01DX010 (ip), vehicle: alkali diluted with saline): 121 % of control | T/C (endpoint: mean survival time, dose: 9.38 mg/kg/injection, schedule: Q01DX009 (ip), vehicle: alkali diluted with saline): 118 % of control | T/C (endpoint: mean survival time, dose: 10.0 mg/kg/injection, schedule: Q01DX009 (ip), vehicle: alkali diluted with saline): 101 % of control | T/C (endpoint: mean survival time, dose: 13.2 mg/kg/injection, schedule: Q01DX010 (ip), vehicle: alkali diluted with saline): 120 % of control | T/C (endpoint: mean survival time, dose: 15.0 mg/kg/injection, schedule: Q01DX005 (ip), vehicle: alkali diluted with saline): 113 % of control | T/C (endpoint: mean survival time, dose: 16.0 mg/kg/injection, schedule: Q01DX009 (sc), vehicle: saline): 97 % of control | T/C (endpoint: mean survival time, dose: 16.0 mg/kg/injection, schedule: Q03HX008 (ip), vehicle: saline): 112 % of control | T/C (endpoint: mean survival time, dose: 16.0 mg/kg/injection, schedule: Q03HX016 (ip), vehicle: saline): 104 % of control | T/C (endpoint: mean survival time, dose: 16.0 mg/kg/injection, schedule: Q03HX024 (ip), vehicle: saline): 112 % of control | T/C (endpoint: mean survival time, dose: 18.75 mg/kg/injection, schedule: Q01DX009 (ip), vehicle: alkali diluted with saline): 119 % of control | T/C (endpoint: mean survival time, dose: 18.8 mg/kg/injection, schedule: Q01DX009 (ip), vehicle: alkali diluted with saline): 102 % of control | T/C (endpoint: mean survival time, dose: 19.8 mg/kg/injection, schedule: Q01DX010 (ip), vehicle: alkali diluted with saline): 121 % of control | T/C (endpoint: mean survival time, dose: 20.0 mg/kg/injection, schedule: Q01DX009 (ip), vehicle: alkali diluted with saline): 105 % of control | T/C (endpoint: mean survival time, dose: 28.12 mg/kg/injection, schedule: Q04DX003 (ip), vehicle: alkali diluted with saline): 103 % of control | T/C (endpoint: mean survival time, dose: 30.0 mg/kg/injection, schedule: Q01DX005 (ip), vehicle: alkali diluted with saline): 122 % of control | T/C (endpoint: mean survival time, dose: 32.0 mg/kg/injection, schedule: Q01DX009 (ip), vehicle: saline): 123 % of control | T/C (endpoint: mean survival time, dose: 32.0 mg/kg/injection, schedule: Q01DX009 (sc), vehicle: saline): 103 % of control | T/C (endpoint: mean survival time, dose: 32.0 mg/kg/injection, schedule: Q03HX008 (ip), vehicle: saline): 108 % of control | T/C (endpoint: mean survival time, dose: 32.0 mg/kg/injection, schedule: Q03HX016 (ip), vehicle: saline): 113 % of control | T/C (endpoint: mean survival time, dose: 37.5 mg/kg/injection, schedule: Q01DX009 (ip), vehicle: alkali diluted with saline): 120 % of control and 124 % of control | T/C (endpoint: mean survival time, dose: 40.0 mg/kg/injection, schedule: Q01DX009 (ip), vehicle: alkali diluted with saline): 120 % of control | T/C (endpoint: mean survival time, dose: 56.25 mg/kg/injection, schedule: Q04DX003 (ip), vehicle: alkali diluted with saline): 116 % of control and 103 % of control | T/C (endpoint: mean survival time, dose: 64.0 mg/kg/injection, schedule: Q01DX001 (ip), vehicle: saline): 111 % of control | T/C (endpoint: mean survival time, dose: 64.0 mg/kg/injection, schedule: Q01DX009 (oral), vehicle: saline): 96 % of control | T/C (endpoint: mean survival time, dose: 64.0 mg/kg/injection, schedule: Q01DX009 (sc), vehicle: saline): 111 % of control | T/C (endpoint: mean survival time, dose: 64.0 mg/kg/injection, schedule: Q03HX008 (ip), vehicle: saline): 116 % of control | T/C (endpoint: mean survival time, dose: 64.0 mg/kg/injection, schedule: Q03HX016 (ip), vehicle: saline): 116 % of control | T/C (endpoint: mean survival time, dose: 64.0 mg/kg/injection, schedule: Q04DX003 (ip), vehicle: saline): 116 % of control | T/C (endpoint: mean survival time, dose: 64.0 mg/kg/injection, schedule: Q04DX003 (oral), vehicle: saline): 98 % of control | T/C (endpoint: mean survival time, dose: 64.0 mg/kg/injection, schedule: Q04DX003 (sc), vehicle: saline): 96 % of control | T/C (endpoint: mean survival time, dose: 64.0 mg/kg/injection, schedule: Q08DX002 (ip), vehicle: saline): 109 % of control | T/C (endpoint: mean survival time, dose: 112.5 mg/kg/injection, schedule: Q04DX003 (ip), vehicle: alkali diluted with saline): 123 % of control | T/C (endpoint: mean survival time, dose: 128.0 mg/kg/injection, schedule: Q01DX001 (ip), vehicle: saline): 113 % of control | T/C (endpoint: mean survival time, dose: 128.0 mg/kg/injection, schedule: Q01DX009 (ip), vehicle: saline): 95 % of control | T/C (endpoint: mean survival time, dose: 128.0 mg/kg/injection, schedule: Q01DX009 (oral), vehicle: saline): 91 % of control | T/C (endpoint: mean survival time, dose: 128.0 mg/kg/injection, schedule: Q01DX009 (sc), vehicle: saline): 104 % of control | T/C (endpoint: mean survival time, dose: 128.0 mg/kg/injection, schedule: Q04DX003 (oral), vehicle: saline): 102 % of control | T/C (endpoint: mean survival time, dose: 128.0 mg/kg/injection, schedule: Q04DX003 (sc), vehicle: saline): 105 % of control | T/C (endpoint: mean survival time, dose: 128.0 mg/kg/injection, schedule: Q08DX002 (ip), vehicle: saline): 112 % of control | T/C (endpoint: mean survival time, dose: 150.0 mg/kg/injection, schedule: Q01DX009 (ip), vehicle: alkali diluted with saline): 102 % of control | T/C (endpoint: mean survival time, dose: 256.0 mg/kg/injection, schedule: Q01DX001 (ip), vehicle: saline): 123 % of control | T/C (endpoint: mean survival time, dose: 256.0 mg/kg/injection, schedule: Q04DX003 (ip), vehicle: saline): 119 % of control | T/C (endpoint: mean survival time, dose: 256.0 mg/kg/injection, schedule: Q04DX003 (oral), vehicle: saline): 116 % of control | T/C (endpoint: mean survival time, dose: 256.0 mg/kg/injection, schedule: Q04DX003 (sc), vehicle: saline): 122 % of control | T/C (endpoint: mean survival time, dose: 512.0 mg/kg/injection, schedule: Q04DX003 (ip), vehicle: saline): 170 % of control | T/C (endpoint: mean survival time, dose: 512.0 mg/kg/injection, schedule: Q04DX003 (sc), vehicle: saline): 155 % of control | T/C (endpoint: mean survival time, dose: 1024.0 mg/kg/injection, schedule: Q04DX003 (ip), vehicle: saline): 90 % of control | T/C (endpoint: mean survival time, dose: 1024.0 mg/kg/injection, schedule: Q04DX003 (oral), vehicle: saline): 119 % of control | T/C (endpoint: mean survival time, dose: 1024.0 mg/kg/injection, schedule: Q04DX003 (sc), vehicle: saline): 89 % of control | T/C (endpoint: mean survival time, dose: 1024.0 mg/kg/injection, schedule: Q08DX002 (ip), vehicle: saline): 118 % of control | T/C (endpoint: median survival time, dose: 0.78 mg/kg/injection, schedule: Q01DX009 (ip), vehicle: water): 100 % of control | T/C (endpoint: median survival time, dose: 0.78 mg/kg/injection, schedule: Q04DX003 (ip), vehicle: water): 100 % of control | T/C (endpoint: median survival time, dose: 1.57 mg/kg/injection, schedule: Q01DX009 (ip), vehicle: water): 95 % of control and 100 % of control | T/C (endpoint: median survival time, dose: 1.57 mg/kg/injection, schedule: Q04DX003 (ip), vehicle: water): 95 % of control | T/C (endpoint: median survival time, dose: 3.13 mg/kg/injection, schedule: Q01DX009 (ip), vehicle: water): 100 % of control | T/C (endpoint: median survival time, dose: 3.13 mg/kg/injection, schedule: Q04DX003 (ip), vehicle: water): 95 % of control and 100 % of control | T/C (endpoint: median survival time, dose: 6.25 mg/kg/injection, schedule: Q01DX009 (ip), vehicle: water): 110 % of control | T/C (endpoint: median survival time, dose: 6.25 mg/kg/injection, schedule: Q04DX003 (ip), vehicle: water): 90 % of control and 95 % of control | T/C (endpoint: median survival time, dose: 12.5 mg/kg/injection, schedule: Q01DX009 (ip), vehicle: water): 105 % of control | T/C (endpoint: median survival time, dose: 12.5 mg/kg/injection, schedule: Q04DX003 (ip), vehicle: water): 90 % of control and 100 % of control | T/C (endpoint: median survival time, dose: 13.0 mg/kg/injection, schedule: Q01DX009 (ip), vehicle: alkali diluted with saline): 120 % of control | T/C (endpoint: median survival time, dose: 16.2 mg/kg/injection, schedule: Q01DX009 (ip), vehicle: alkali diluted with saline): 119 % of control | T/C (endpoint: median survival time, dose: 21.6 mg/kg/injection, schedule: Q01DX009 (ip), vehicle: alkali diluted with saline): 122 % of control | T/C (endpoint: median survival time, dose: 25.0 mg/kg/injection, schedule: Q01DX009 (ip), vehicle: water): 100 % of control | T/C (endpoint: median survival time, dose: 25.0 mg/kg/injection, schedule: Q04DX003 (ip), vehicle: water): 90 % of control and 105 % of control | T/C (endpoint: median survival time, dose: 27.0 mg/kg/injection, schedule: Q01DX009 (ip), vehicle: alkali diluted with saline): 124 % of control | T/C (endpoint: median survival time, dose: 31.3 mg/kg/injection, schedule: Q01DX009 (ip), vehicle: water): 122 % of control | T/C (endpoint: median survival time, dose: 31.3 mg/kg/injection, schedule: Q04DX003 (ip), vehicle: water): 116 % of control | T/C (endpoint: median survival time, dose: 35.0 mg/kg/injection, schedule: Q04DX003 (ip), vehicle: alkali diluted with saline): 120 % of control | T/C (endpoint: median survival time, dose: 36.0 mg/kg/injection, schedule: Q01DX009 (ip), vehicle: alkali diluted with saline): 120 % of control | T/C (endpoint: median survival time, dose: 58.3 mg/kg/injection, schedule: Q04DX003 (ip), vehicle: alkali diluted with saline): 120 % of control | T/C (endpoint: median survival time, dose: 62.5 mg/kg/injection, schedule: Q01DX009 (ip), vehicle: water): 122 % of control | T/C (endpoint: median survival time, dose: 62.5 mg/kg/injection, schedule: Q04DX003 (ip), vehicle: water): 122 % of control | T/C (endpoint: median survival time, dose: 90.0 mg/kg/injection, schedule: Q01DX009 (ip), vehicle: alkali diluted with saline): 158 % of control | T/C (endpoint: median survival time, dose: 125.0 mg/kg/injection, schedule: Q01DX009 (ip), vehicle: alkali diluted with saline): 114 % of control | T/C (endpoint: median survival time, dose: 125.0 mg/kg/injection, schedule: Q01DX009 (ip), vehicle: water): 88 % of control | T/C (endpoint: median survival time, dose: 125.0 mg/kg/injection, schedule: Q04DX003 (ip), vehicle: water): 122 % of control | T/C (endpoint: median survival time, dose: 162.0 mg/kg/injection, schedule: Q04DX003 (ip), vehicle: alkali diluted with saline): 151 % of control | T/C (endpoint: median survival time, dose: 250.0 mg/kg/injection, schedule: Q04DX003 (ip), vehicle: water): 155 % of control and 177 % of control | T/C (endpoint: median survival time, dose: 270.0 mg/kg/injection, schedule: Q04DX003 (ip), vehicle: alkali diluted with saline): 172 % of control | T/C (endpoint: median survival time, dose: 450.0 mg/kg/injection, schedule: Q04DX003 (ip), vehicle: alkali diluted with saline): 189 % of control | T/C (endpoint: median survival time, dose: 500.0 mg/kg/injection, schedule: Q04DX003 (ip), vehicle: water): 194 % of control
